According to US11656221B2, “Methods to identify modulators of actin-binding proteins” (Regents of the University of Minnesota, priority 2019, dated 2023):
Entries after “also recorded” stand apart in the source; their conditions may differ.

Legend:
[1] = target: T1, Lifeact-mCherry binding to F-actin (Oryctolagus cuniculus, UniProt P68135); assay: F-actin and Lifeact-mCherry co-sedimentation assay; design: species or system New Zealand white rabbit (Oryctolagus cuniculus); conditions: 3 μM, 2 μM Lifeact-mCherry, 30 μM F-actin
T1 construct: Actin was purified from acetone powder derived from the psoas muscle; made in house; host or cells: actin from rabbit psoas muscle; Lifeact-mCherry from E. coli, pE-SUMOpro
Description: Actin was purified from acetone powder derived from the psoas muscle of New Zealand white rabbit (Oryctolagus cuniculus). Filamentous (F)-actin was stored for up to 3 days on ice before use in binding assays. Within an hour of the binding assay, the F-actin was clarified at 100,000×g at 4° C. for 10 min prior to setting up binding assays. The L253P β-III-spectrin ABD was expressed in E. coli BL21(DE3) (Novagen). The ABD was purified and the His-SUMO tag proteolytically removed, as previously described, except size-exclusion chromatography was not performed due to the high purity of the ABD protein. Lifeact-mCherry protein was similarly prepared. A Bradford assay was performed to determine clarified F-actin and ABD protein concentrations.
(§1) F-actin and ABD binding assays were performed as previously described. In brief, binding assays used 1 μM ABD protein, 1 μM F-actin and 1-50 μM compound (as indicated) or DMSO control for a total reaction volume of 60 μL in F-buffer containing 10 mM Tris, pH 7.5, 150 mM NaCl, 0.5 mM ATP, 2 mM MgCl2, and 1 mM DTT. Following 30 min incubation at room temperature (21° C.). F-actin was pelleted using centrifugation at 100,000×g at 25° C. for 30 min. Unbound ABD in the supernatant was measured following SDS-PAGE and Coomassie blue staining in accord. In addition, control co-sedimentations assays that lacked actin were performed to test if compounds cause ABD aggregation. F-actin and Lifeact-mCherry binding assays were undertaken with 2 μM Lifeact-mCherry, 30 μM F-actin and 1-50 μM compound (as indicated) or DMSO control for a total reaction volume of 80 μL in F-buffer. For a no-actin binding control, an assay sample with no F-actin was also set up. Binding reactions were allowed to reach equilibrium at room temperature (21° C.) for 30 min and then F-actin was pelleted by centrifugation at 100,000×g at 25° C. for 30 min. The amount of unbound Lifeact-mCherry was sampled by loading 7 μL of spin supernatant on a low volume black bottom 384-well plate (Greiner). Amount of mCherry was determined by acquiring fluorescence spectrum peak intensity at ˜600 nm using a spectral unmixing plate reader (Fluorescence Innovations, Inc) equipped with a 532 nm laser (Laserglow Technologies, Ontario, Canada) for excitation, 532 nm longpass filter for emission, and PMT for emission detection. The fraction of Lifeact-mCherry bound to F-actin was determined by subtracting from one the fraction of supernatant fluorescence intensity relative to the no-actin control sample, using the following equation:
[formula] • Where Fcontrol/DMSO is the peak mCherry fluorescence of assay samples containing compound or DMSO control, and Fno-actin is the peak mCherry fluorescence of assay samples that contained no F-actin. 2.9 Trypan Blue Cell Viability Assays

HEK293-6E cells = assay: Trypan blue cell viability assay; type: cell-based; conditions: 3 μM, 3 hrs
Description: HEK293-6E cell viability was measured using trypan blue (0.03%) staining and a Countess Automated Cell counter (Invitrogen). Non-transfected HEK293-6E cells were spun at 100×g for 5 min at 21° C., and resuspended in 10 mL of PBS. The centrifugation and resuspension were repeated twice more. Final cell concentration was 1×10^6 cells/mL. Cells were incubated with 2% DMSO, or 3-50 μM compound (as indicated) for 3 hrs at room temperature (21° C.). After addition of 100 μL of 0.06% trypan blue solution in PBS, 10 μL was loaded on a slide and injected into the cell counter, and cell viability was measured.

ABD-L253P = target: T2, ABD-L253P (Homo sapiens, UniProt O15020, L253P); assay: Sedimentation of ABD L253P without actin (aggregation); conditions: 1.6 μM
T2 construct: His-SUMO (cleaved yes); made in house; host or cells: E. coli BL21(DE3), pE-SUMOpro
T2 sequence (O15020 1-284 L253P): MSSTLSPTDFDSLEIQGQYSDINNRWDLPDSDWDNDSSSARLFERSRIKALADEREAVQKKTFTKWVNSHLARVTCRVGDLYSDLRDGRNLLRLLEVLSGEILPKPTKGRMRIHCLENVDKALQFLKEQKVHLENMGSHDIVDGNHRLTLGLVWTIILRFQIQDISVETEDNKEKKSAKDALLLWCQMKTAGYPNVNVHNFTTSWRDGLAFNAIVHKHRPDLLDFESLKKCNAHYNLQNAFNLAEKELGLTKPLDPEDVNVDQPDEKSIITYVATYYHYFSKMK
Description: as §1, with “equation: […]” for “equation:”
In addition to a reduction in cell viability, the primary and counter screen may be sensitive to compounds that promote ABD-L253P protein aggregation. […] Our ABD-L253P to actin co-sedimentation assay is unlikely to be sensitive to ABD aggregation, as it is set up to monitor maximal sedimentation of ABD-L253P with actin at ˜90% ABD-L253P co-sedimenting. To directly measure the impact of 10 μM Hit compounds on ABD aggregation, we repeated the ABD-actin co-sedimentation without actin present.

actin = actin sedimentation assay; read-out: previously reported affinity value; cited from earlier work

CO[C@H]1C[C@H](CC[C@H](C)[C@H](O)[C@H](C)[C@H]2OC(=O)/C=C/C(C)=C/C[C@H](O)C[C@@H]3C=CC[C@@H](C[C@H](OC)[C@@H](C)[C@@H](O)C[C@@H](O)[C@H](C)[C@@H]([C@@H](C)[C@@H](O)[C@@H](C)CC[C@H]4C[C@H](OC)C[C@H](C)O4)OC(=O)/C=C/C(C)=C/C[C@H](O)C[C@@H]4C=CC[C@@H](C[C@H](OC)[C@@H](C)[C@@H](O)C[C@@H](O)[C@@H]2C)O4)O3)O[C@@H](C)C1 [swinholide A]
effect on Lifeact-mCherry binding with actin [1]: did reduce; also recorded: reduce Lifeact-mCherry binding with actin | effect on HEK293-6E cell viability (HEK293-6E cells): did not significantly alter and not | ABD sedimentation without actin (ABD-L253P): does not alter ABD sedimentation | Kd (actin): 0.05 µM
